For orientation: Kd means the concentration at which binding is half-saturated. A lower Kd goes with higher affinity.

The source of these data is patent US12116422B2, “Stapled peptide and use thereof in preparation of drug for treating pancreatic cancer” (Ruijin Hospital, Shanghai Jiao Tong University School of …, priority 2022, dated 2024).

“Also recorded” adds a separate entry of the source. Like-named read-outs stand apart in the source and are kept apart here. Where a SMILES comes first, the peptide text is derived from it. Bridges are numbered along the chain shown (N, C = ends). Where no end group is shown, it is not given here. [ ]: non-standard residue; d: D form. R5 = C=CCCC[C@@](C)(N)C(=O)O

Data set [1] concerns the target T1, ANK domain of N1ICD (Homo sapiens, UniProt P46531). The experiment in a line: SPR binding to the ANK domain. As for the experimental part: (§1) Surface plasmon resonance (SPR) analysis was conducted with a BlAcore T200 instrument (GE Healthcare, Pittsburgh, USA) to analyze the binding kinetics between N1DARP or SAH-mAH2-5 and a monitor peptide. Dissociation constants (KD) were calculated according to BIA evaluation software.
(§2) A tertiary structure simulating the N1DARP was analyzed online using I-TASSAR, a hierarchical server for protein structure prediction, and two α-helical peptides (AH1 and AH2) were identified (FIG. 1A, left side). […] Furthermore, in order to identify the essential amino acids that mediated the interaction between mAH2 and ANK, amino acid substitutions were conducted for each amino acid of mAH2 substituted with Ala, which were then subjected to SPR analysis. […] Based on the above evidence, mAH2 was then further modified by inserting molecular staples at 5 positions and denoted as stapled α-helices (SAHs).
Target sequence in this assay (P46531 1872-2126 limits assumed): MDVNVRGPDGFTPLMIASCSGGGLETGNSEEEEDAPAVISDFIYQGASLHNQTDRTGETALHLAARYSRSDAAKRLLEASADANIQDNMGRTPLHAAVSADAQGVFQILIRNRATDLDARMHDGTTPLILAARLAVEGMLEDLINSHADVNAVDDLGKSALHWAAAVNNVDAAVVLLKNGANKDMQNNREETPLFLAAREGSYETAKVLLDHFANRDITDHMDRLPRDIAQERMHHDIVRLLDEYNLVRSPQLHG
(In general: In SPR one partner is held on a chip, and binding of the other changes the refractive index at the surface.)

The subject of a further data set is proteinase K, pepsin. The experiment in a line: Incubation with proteinase K and pepsin. It is filed as in vitro ADME. As for the experimental part: (§3) To examine the physicochemical stability of SAH-mAH2-5, mAH2, Pep2-mAH2, and SAH-mAH2-5 were incubated with proteinase K, pepsin, and mouse plasma.
Data set [2] can be described thus: Incubation with mouse plasma. It counts as in vitro ADME. The procedure:
as §3

For data set [3], the system named is pancreatic cancer patient-derived organoids. Kind of data set: Growth of pancreatic cancer patient-derived organoids (PDOs). It is filed as cell-based, human. An excerpt:
Four pancreatic cancer tissues were obtained from Ruijin Hospital Affiliated to Shanghai Jiaotong University School of Medicine for organoid culture. All enrolled patients met the following criteria: (i) pathologically diagnosed with pancreatic cancer; (ii) with relatively complete clinicopathological and follow-up data; (iii) without preoperative chemotherapy. Written informed consent was obtained from all relevant patients for the trial, and the study protocol was approved by the Ethics Committee of Ruijin Hospital.
Establishment of patient-derived pancreatic cancer organoids: the normal pancreatic tissues were excised, remaining pancreatic cancer tissues were minced, and enzymatically digested with collagenase (1 mg/ml to 2 mg/ml; Sigma-Aldrich, C9407) in a water bath at 37° C. for 1 h to 2 h. A resulting suspension was filtered through a 100 μm filter to retain tissue debris. The tissue debris was centrifuged at 530 g for 5 min to obtain organoid fractions and resuspended in an RPMI 1640 medium; a resulting suspension was mixed with a cold Matrigel (BD Biocoat, 356234, 10 mg/ml) and then solidified on a pre-warmed 24-well suspension plate at 37° C. for 20 min. After complete gelation, […] of an organoid medium was added to each well, and the plate was transferred to a 37° C./5% humidified CO2 incubator with 2% or ambient O2. […]

Another data set has as its system PDOX model of PDAC. Kind of data set: PDO xenograft (PDOX) models in nude mice, tumor volume and survival. It is filed as in vivo, Nude BALB/c mice. The conditions noted are these: high USP10 and N1ICD expression; 1/2/3/4/5 mg/kg intravenously weekly. As for the experimental part:
All animal experimental procedures met institutional ethical requirements and were approved by the Animal Use and Care Committee of Shanghai Jiaotong University School of Medicine. Nude BALB/c mice (male, 4 to 6 weeks old) were purchased from the Chinese Academy of Sciences (Shanghai, China) and kept in a specific pathogen-free facility. For a subcutaneously-injected tumor model, the pancreatic cancer patient-derived organoids (5×10^6 cells/site) were injected subcutaneously into the right side of each mouse. From the first injection, a tumor volume was measured every 7 d using the formula: tumor volume (mm^3)=½(a×b^2), where “a” represented the longest longitudinal diameter and “b” represented the longest transverse diameter.
To evaluate the efficacy of SAH-mAH2-5 in vivo, Capan1 cells (1×10^7 cells/site) and four organoids (5×10^6 cells/site) were subcutaneously injected. One week after inoculation, SAH-CTRL/SAH-mAH2-5 (1/2/3/4/5 mg/kg) and GEM (50 mg/kg) were intravenously injected weekly at the indicated concentrations. Within 35 d from the first injection, the tumor volume was measured every 7 d, and the formula was: tumor volume (mm^3)=½(a×b^2). […]

Another data set addresses T2, USP10-N1ICD interaction (Homo sapiens, UniProt P46531).
T2 construct: endogenous in cells; host or cells: Capan1
Kind of data set: Immunoprecipitation/Western blot of the USP10-N1ICD interaction in Capan1 cells. It is filed as cell-based. An excerpt: (§4) The pancreatic cancer cell line Capan1 was purchased from the Cell Bank of the Chinese Academy of Sciences. The cells were STR-identified, negative for mycoplasma, and cultured in the RPMI 1640 supplemented with 10% fetal bovine serum and antibiotics.
(§5) A RIPA buffer was mixed with a cocktail of proteases and phosphatase inhibitors for lysing cell samples. Proteins were separated by 10% SDS-PAGE and transferred to a PVDF membrane. The images were generated by a Tanon 5200 chemiluminescence imaging system (Shanghai Tanon Life Science Instrument Co., Ltd.). The corresponding proteins were detected with primary antibodies and appropriate secondary antibodies. The primary antibodies were as follows: anti-USP10 (CST, #8501, 1:1000 for WB, 1:200 for IP), anti-β-actin (CST, #3700, 1:1000 for WB), and anti-N1ICD (CST, #4147, 1:1000 for WB, 1:200 for IP).
Immunoprecipitation analysis: pancreatic cancer cells transfected with indicated plasmid or lentivirus were collected and lysed for 10 min on ice. A resulting lysate was centrifuged to obtain a supernatant, which was then incubated with appropriate antibodies and protein A/G+agarose (Santa Cruz Biotechnology) overnight at 4° C. A resulting immune complex was washed 4 to 6 times and boiled in a 2×SDS sample buffer for 5 min. […] A resulting binding protein was dissolved in the SDS sample buffer and analyzed by immunoblotting.
A general note: Immunoblotting shows a protein as a band on a membrane.

The test system of a further data set is N1ICD. The experiment in a line: Western blot of N1ICD expression, stability and ubiquitination in Capan1 cells. It is filed as cell-based.
From the text: as §4, §5
Immunoprecipitation analysis: pancreatic cancer cells transfected with indicated plasmid or lentivirus were collected and lysed for 10 min on ice. A resulting lysate was centrifuged to obtain a supernatant, which was then incubated with appropriate antibodies and protein A/G+agarose (Santa Cruz Biotechnology) overnight at 4° C. A resulting immune complex was washed 4 to 6 times and boiled in a 2×SDS sample buffer for 5 min. A resulting product was separated and co-precipitated using SDS-PAGE and blotted with specific antibodies. A resulting binding protein was dissolved in the SDS sample buffer and analyzed by immunoblotting.

The nature of data set [4]: In vivo safety in healthy mice (serum biochemistry, HE staining). Conditions: 2 mg/kg intravenously weekly for 4 weeks.
Method: To roughly assess the toxicity of SAH-mAH2-5, healthy BALB/c nude mice (5 weeks) were intravenously injected with SAH-CTRL or SAH-mAH2-5 (2 mg/kg) weekly for 4 weeks. The mice were sacrificed, and organs such as pancreas, lung, spleen, kidney, liver, and colon were extracted, which were then subjected to HE staining to screen morphological abnormalities. In addition, serum was collected for biochemical analysis of alanine aminotransferase (ALT), aspartate aminotransferase (AST), blood urea nitrogen (BUN), and creatinine (CR) by a chemical analyzer TBA-40FR (Toshiba Medical Systems, Japan).
Data set [5] deals with T1, ANK domain of N1ICD. Kind of data set: KD (M). An excerpt: Table printed on a drawing sheet, FIG. 1C
(§6) Head of the field: KD (M)
First copying reader's note: Brackets drawn over the sequences join the two S5 residues of each staple; the SAH-mAH2-5 row is printed in lighter (highlighted) type.
Target sequence in this assay (P46531 19-2555 limits assumed): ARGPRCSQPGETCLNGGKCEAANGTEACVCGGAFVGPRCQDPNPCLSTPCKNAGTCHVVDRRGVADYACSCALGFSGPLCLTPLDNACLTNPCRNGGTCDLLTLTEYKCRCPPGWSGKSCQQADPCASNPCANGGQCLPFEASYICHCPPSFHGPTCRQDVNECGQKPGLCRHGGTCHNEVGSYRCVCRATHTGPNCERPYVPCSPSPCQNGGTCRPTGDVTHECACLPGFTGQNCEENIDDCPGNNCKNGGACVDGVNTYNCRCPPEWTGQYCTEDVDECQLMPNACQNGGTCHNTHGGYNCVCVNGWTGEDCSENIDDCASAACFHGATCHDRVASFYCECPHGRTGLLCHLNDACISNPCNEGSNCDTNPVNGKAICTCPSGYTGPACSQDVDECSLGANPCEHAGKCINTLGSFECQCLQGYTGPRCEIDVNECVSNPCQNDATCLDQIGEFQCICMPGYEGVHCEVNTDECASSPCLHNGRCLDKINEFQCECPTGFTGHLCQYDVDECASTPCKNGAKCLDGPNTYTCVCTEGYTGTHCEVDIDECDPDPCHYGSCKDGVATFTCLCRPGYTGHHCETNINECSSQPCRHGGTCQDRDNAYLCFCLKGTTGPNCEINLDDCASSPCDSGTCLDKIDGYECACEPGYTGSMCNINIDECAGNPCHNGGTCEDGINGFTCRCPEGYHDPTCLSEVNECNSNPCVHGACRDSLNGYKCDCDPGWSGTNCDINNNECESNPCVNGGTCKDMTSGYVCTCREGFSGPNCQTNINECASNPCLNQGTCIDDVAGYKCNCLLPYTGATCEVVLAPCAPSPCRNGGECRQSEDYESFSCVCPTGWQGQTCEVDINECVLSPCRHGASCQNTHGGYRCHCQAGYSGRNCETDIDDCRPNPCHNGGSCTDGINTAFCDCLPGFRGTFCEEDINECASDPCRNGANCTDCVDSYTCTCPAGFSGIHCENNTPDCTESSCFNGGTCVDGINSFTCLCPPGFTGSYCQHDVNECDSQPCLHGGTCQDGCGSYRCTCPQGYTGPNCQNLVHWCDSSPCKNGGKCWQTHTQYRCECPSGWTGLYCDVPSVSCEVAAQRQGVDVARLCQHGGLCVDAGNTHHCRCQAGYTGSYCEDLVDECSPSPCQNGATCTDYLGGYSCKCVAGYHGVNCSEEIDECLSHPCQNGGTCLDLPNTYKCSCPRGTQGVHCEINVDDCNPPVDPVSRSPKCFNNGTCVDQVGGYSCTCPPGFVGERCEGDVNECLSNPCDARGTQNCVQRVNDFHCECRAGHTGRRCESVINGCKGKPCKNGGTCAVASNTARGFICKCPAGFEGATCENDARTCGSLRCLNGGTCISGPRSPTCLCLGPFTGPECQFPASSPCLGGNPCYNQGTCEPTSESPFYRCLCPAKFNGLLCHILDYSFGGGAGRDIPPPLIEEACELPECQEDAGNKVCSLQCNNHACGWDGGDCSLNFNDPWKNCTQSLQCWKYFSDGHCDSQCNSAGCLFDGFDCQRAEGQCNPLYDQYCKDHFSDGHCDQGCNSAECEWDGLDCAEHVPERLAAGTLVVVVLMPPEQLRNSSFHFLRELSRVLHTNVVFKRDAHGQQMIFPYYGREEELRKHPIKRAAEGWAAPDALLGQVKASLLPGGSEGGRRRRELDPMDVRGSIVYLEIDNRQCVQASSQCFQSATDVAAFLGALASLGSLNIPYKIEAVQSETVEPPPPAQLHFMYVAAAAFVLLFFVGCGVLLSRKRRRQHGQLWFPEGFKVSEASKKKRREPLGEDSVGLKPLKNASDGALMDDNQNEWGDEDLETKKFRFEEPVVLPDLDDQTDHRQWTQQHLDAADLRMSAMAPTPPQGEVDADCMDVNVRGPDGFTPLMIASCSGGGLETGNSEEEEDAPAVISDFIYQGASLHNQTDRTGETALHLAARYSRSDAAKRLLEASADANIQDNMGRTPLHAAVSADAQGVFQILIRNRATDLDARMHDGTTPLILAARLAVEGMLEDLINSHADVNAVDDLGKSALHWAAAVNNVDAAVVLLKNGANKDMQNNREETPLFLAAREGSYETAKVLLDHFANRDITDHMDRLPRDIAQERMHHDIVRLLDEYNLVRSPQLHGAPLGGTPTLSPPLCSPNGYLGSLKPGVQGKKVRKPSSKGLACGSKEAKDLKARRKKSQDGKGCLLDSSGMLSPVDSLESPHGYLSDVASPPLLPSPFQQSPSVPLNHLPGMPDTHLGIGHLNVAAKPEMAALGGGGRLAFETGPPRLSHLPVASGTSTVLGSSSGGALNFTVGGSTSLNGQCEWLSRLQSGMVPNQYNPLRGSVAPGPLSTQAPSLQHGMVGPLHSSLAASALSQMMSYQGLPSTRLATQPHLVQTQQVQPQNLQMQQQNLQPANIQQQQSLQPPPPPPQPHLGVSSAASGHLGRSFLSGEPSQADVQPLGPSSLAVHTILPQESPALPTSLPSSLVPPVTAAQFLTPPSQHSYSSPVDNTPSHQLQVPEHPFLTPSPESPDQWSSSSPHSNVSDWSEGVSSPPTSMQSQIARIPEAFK

In the next data set the test system is ANK1. Kind of data set: SPR binding to the α-helical regions ANK1 to ANK6. The procedure: as §1, §2
Data set [6] has as its target T1, ANK domain of N1ICD. Kind of data set: KD (M).
From the text: Table printed on a drawing sheet, FIG. 1D
as §6
Target sequence in this assay (P46531 19-2555 limits assumed): as above
First copying reader's note: Alanine scan of mAH2; the substituted A is printed in lighter type, and the rows mAH2-7, mAH2-9 and mAH2-14 are highlighted in lighter type.
Where the first naming reader finds the target: passage: A tertiary structure of the ANK domain of N1ICD was obtained from a PDB database
The source holds these as a separate data set.

T2 sequence (P46531 1754-2555 limits assumed): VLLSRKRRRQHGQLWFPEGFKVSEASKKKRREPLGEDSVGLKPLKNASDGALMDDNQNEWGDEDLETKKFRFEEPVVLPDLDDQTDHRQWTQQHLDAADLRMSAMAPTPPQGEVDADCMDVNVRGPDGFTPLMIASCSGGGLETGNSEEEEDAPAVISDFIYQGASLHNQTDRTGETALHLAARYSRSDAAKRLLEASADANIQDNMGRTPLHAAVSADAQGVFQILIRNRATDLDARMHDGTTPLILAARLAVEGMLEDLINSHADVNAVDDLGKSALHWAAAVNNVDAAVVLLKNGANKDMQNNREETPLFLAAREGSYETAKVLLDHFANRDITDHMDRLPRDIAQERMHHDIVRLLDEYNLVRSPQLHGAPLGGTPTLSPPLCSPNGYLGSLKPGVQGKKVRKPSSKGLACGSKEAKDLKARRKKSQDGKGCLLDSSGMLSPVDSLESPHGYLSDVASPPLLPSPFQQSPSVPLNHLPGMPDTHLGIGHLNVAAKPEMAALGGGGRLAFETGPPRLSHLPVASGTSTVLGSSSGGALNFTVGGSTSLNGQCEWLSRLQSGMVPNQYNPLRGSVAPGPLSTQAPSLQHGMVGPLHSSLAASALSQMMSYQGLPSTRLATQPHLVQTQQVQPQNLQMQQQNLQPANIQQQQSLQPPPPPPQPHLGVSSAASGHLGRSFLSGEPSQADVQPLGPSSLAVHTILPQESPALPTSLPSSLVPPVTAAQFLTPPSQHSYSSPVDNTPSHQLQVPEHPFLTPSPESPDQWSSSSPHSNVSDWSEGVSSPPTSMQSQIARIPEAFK

In the case of `CC[C@H](C)[C@H](NC(=O)[C@H](CCCNC(=N)N)NC(=O)[C@H](CCCCN)NC(=O)[C@H](C)NC(=O)[C@@H](N)Cc1ccc(O)cc1)C(=O)N[C@]1(C)CCC/C=C/CCC[C@](C)(C(=O)N[C@@H](CC(C)C)C(=O)O)NC(=O)[C@H](CCCCN)NC(=O)[C@H](CO)NC(=O)[C@H](CC(C)C)NC(=O)[C@H](CC(C)C)NC(=O)[C@H](CCC(N)=O)NC(=O)[C@H](Cc2ccc(O)cc2)NC1=O` [SAH-mAH2-5, stapled α-helix-modified α-helix 2-5] (H-YAKRI[R5]YQLLSK[R5]L-OH; staple (E) 6-13), the “affinity for the ANK domain” value at ANK domain of N1ICD [1] is given as “strongest binding ability; also recorded: highest affinity for ANK”. Moreover, the resistance to proteases result in the data set with proteinase K, pepsin is “significantly enhanced the resistance to proteases”. In addition, the half-life in plasma result in [2] is recorded as “prolonged the half-life in plasma”. The organoid growth inhibition result in [3] (PDAC with high USP10 and N1ICD expression levels) is “significant organoid growth inhibition”. Further, the inhibition effect result in data set [3] (PDAC-1 and PDAC-3 models with relatively low USP10 and N1ICD expression levels) is “poor inhibition effect”. The median survival result with PDOX model of PDAC was “prolonged median survival”. The USP10-N1ICD interaction entry at USP10-N1ICD interaction is “inhibit USP10-N1ICD interaction”. For the same molecule, in the data set with N1ICD (Capan1 cells), the N1ICD deubiquitination entry is on record as “inhibited”; the “Notch signaling and N1ICD expression” value was “inhibiting Notch signaling and its N1ICD expression in a time- and dose-dependent manner”. Further, the N1ICD stability result in the data set with N1ICD (Capan1 cells after cycloheximide (CHX)) is recorded as “inhibited N1ICD stability”. Besides, in data set [4], the “morphology of major organs (HE staining)” value is “without affecting the liver, lungs, and kidneys and other major normal tissues and organs; also recorded: no morphological changes in major functional organs”; the “serum ALT, AST, BUN and creatinine” value was “no abnormalities in the main indicators of liver and kidney functions”.
`CC[C@H](C)[C@H](NC(=O)[C@H](CCCNC(=N)N)NC(=O)[C@H](CCCCN)NC(=O)[C@H](C)NC(=O)[C@@H](N)Cc1ccc(O)cc1)C(=O)N[C@]1(C)CCC/C=C\CCC[C@](C)(C(=O)N[C@@H](CO)C(=O)N[C@@H](CCCCN)C(=O)N[C@@H](CCC(N)=O)C(=O)N[C@@H](CC(C)C)C(=O)O)NC(=O)[C@H](CC(C)C)NC(=O)[C@H](CCC(N)=O)NC(=O)[C@H](Cc2ccc(O)cc2)NC1=O` [SAH-mAH2-3] (H-YAKRI[R5]YQL[R5]SKQL-OH; staple (Z) 6-10) gave a dissociation constant (Kd) at ANK domain of N1ICD [5] of 1.05 nM.
As for YAKRIFYQLLSKEL [AH2], at ANK domain of N1ICD [1], the “affinity for the ANK domain” value is on record as “higher affinity to the ANK domain”. For the same molecule, in the data set on ANK1, the “interaction with ANK1” value is given as “readily interacted with ANK1”. The same molecule came in with a dissociation constant Kd on ANK domain of N1ICD [6] of 60.4 nM.
For YAKRIFYQLLSKQL [mAH2, YAKRIFYQLLSKQL], the “affinity for the ANK domain” value on ANK domain of N1ICD [1] is “comparable affinity for ANK”. On ANK domain of N1ICD [5], this molecule showed a Kd of 60.4 nM.
